Results published in patent US20040254123A1, “Malignant cell differentiation inducer compositions and utilization of the same” (priority 2001, published 2004).

How the values were obtained:
[1] = system: human neuroblastoma IMR-32 cells; assay: Pseudo-ganglion formation / differentiation of IMR-32 cells (phase-contrast microscope); format: cell-based
Description: As [^3H] acetyl-coenzyme A (acetyl-CoA), a product manufactured by Amersham was used, and as propidium iodide, acridine orange and choline chloride, products manufactured by Sigma were used. As fetal bovine serum (hereinafter, abbreviated as FCS), a product manufactured by Cansera International was used.
Morphological change of the cells, and the number of pseudo-ganglia formed were observed under a phase-contrast microscope (magnification: 200).

[2] = system: rat glioma C6 cells; assay: Number of surviving C6 cells after SBA treatment (trypan blue); format: cell-based; settings: 3 days treatment
Experimental: Rat glioma C6 cells obtained from Japanese Cancer Research Resource Bank (JCRB) were inoculated on a medium in an amount of 1×10^5 cells/schale, cultured for 24 hours. […] Then, the cells were dyed with 0.2% trypan blue, then, the number of surviving cells was counted. The counted value of cell number represents average value±standard error (SE) of three continuous tests [*P<0.00301 and *P<0.00001 (in comparison with contrast)]. The counted value is shown as a bar graph in FIG. 3. This test was conducted in the absence of SBA, as a control test.

[3] = system: rat glioma C6 cells; assay: Morphological change of C6 cells (phase-contrast microscope); format: cell-based; settings: 125 μg/ml SBA, 3 days
[4] = system: patients having a cancer or tumor; assay: Clinical trial, intravenous SBA in patients having a cancer or tumor; format: in vivo, human
Description: SBA can be administered, not only intravenously, but also into an abdominal cavity or subcutaneously, or orally.

[5] = system: patient having a cancer or tumor; settings: intravenous 1.5 to 6 g per day per adult; cited from earlier work

O=C1O[C@H]([C@@H]2COC(c3ccccc3)O2)C(O)=C1O (stereo partly drawn) [SBA, mono-sodium 5,6-O-benzylidene-L-ascorbate]
survived cells induced to differentiate into neurocytes having neuritis ([1]; 500 μg/ml SBA): 20 to 30% | morphological change / formation of pseudo-ganglia ([1]; SBA treatment 48 hours): IMR-32 cells form pseudo-ganglia | CD50 (proliferation of C6 cells) [2]: 250 µg/mL | morphological change of C6 cells [3]: Formation of astrocytes was recognized | effect on cancer in patient with attendant rheumatoid arthritis ([4]; 3 mg/body once per day): the cancer reduces | differentiation of cancer or tumor cells in patients ([4]; intravenous 1 mg/body to 10 mg/body once per day per adult, 35 examples): induce differentiation of cancer cells or tumor cells into normal cells efficiently | differentiation of malignant cells forming new blood vessel ([4]; patient with augmented new blood vessel in eye and eyeground hemorrhage, intravenous 1 to 10 mg/body once per day): induces differentiation of malignant cells forming new blood vessel into normal cells | total dimension of the carcinoma or tumor [5]: decreases
